Source: patent US7723388B2, “Avian appeasing pheromones to decrease stress, anxiety and aggressiveness” (priority 2002, dated 2010)

System: population of mites (Dermanyssus gallinae, Omithonyssus sylvianm)
Assay: In vitro sensitivity of the mite population to mite treatments
Settings: for Dose to obtain LD50 / Dose to obtain LD100: pd: prescribed dose; for Dose to obtain LD50: 50% of mites killed over 24 hours; for Dose to obtain LD100: 100% of mites killed in 24 hours; for LD 100 at the dose of the product notice: surroundings corresponding to the conditions of breeding
Procedure: Mites were also tested for during the course of this example. At day 0, the first diffusers of the avian appeasing pheromone were posed and the sampling of mites was effectuated. For the 12 samples that were taken, 5 samples permitted the identification of the species of mites in the breeding; 3 were utilized and placed in a mite culture and recuperated at the end of the internal experiment; and 4 served to test the sensitivity of parasites to the mites used.
On the 5 samples effectuated, […] samples of parasites were identified. 76% (n=86) were identified as Dermanyssus gallinae (chicken mites) and 24% (n=28) were Omithonyssus sylvianm (Northern Fowl mites).
Testing the sensitivity of the mites was next conducted. This test was performed in the population of mites with an in vitro system that verifies the sensitivity of the mite treatment utilized (Carbamate).
The parasites were thus exposed to a variety of concentrations of miticide. The dosage was determined by the value of the notice of dosage recommendation on the product.
Under experimental conditions 2 lots (T1 and T2) were subjected to the tests. The T1 lot corresponded to a universal test, which is not authorized in breeding since Ivermectine was used. Lot 2 corresponded to a test made with Amitraze.

For Ivermectine, the “Dose to obtain LD50” value was 1 pd, the “Dose to obtain LD100” value was 1 pd and the “LD 100 at the dose of the product notice” value was “obtained with the doses prescribed”.
With `Cc1ccc(/N=C/N(C)/C=N/c2ccc(C)cc2C)c(C)c1` [Amitraze] the “Dose to obtain LD50” value was 1 pd, the “Dose to obtain LD100” value was 1 pd and the “LD 100 at the dose of the product notice” value was “obtained with the doses prescribed”.
